Where two headings read alike, the source gives them in different places.

Series [1] can be described thus: Blood-brain penetration test in rats. The format is in vivo, Male SD rats. Particulars: for Kp at 0.5 h / Kp at 5 min / concentration at 0.5 h: male, SD, rat; for Kp at 0.5 h / Kp at 5 min: brain/plasma; for Kp at 5 min: IV 2 mg/kg, 5 min after administration; for concentration at 0.5 h: 0.5 h after oral administration (PO, 10 mg/kg). Here is the method: Male SD rats were divided into groups of three animals each, which were administered the compounds to be tested either by single oral gavage (PO, 10 mg/kg) or by single intravenous injection (IV, 2 mg/kg). Animals were fasted overnight prior to dosing, beginning 10 hours before administration and continuing until 4 hours after dosing. Rats were sacrificed at 0.5 hours after PO administration (or 5 min after IV administration). Blood and brain tissues were collected. The samples were centrifuged at 4000 rpm for 5 min at 4 °C, and plasma was transferred to centrifuge tubes and stored at -80°C until analysis. Plasma samples were processed by protein precipitation extraction, and the extracts were analyzed by LC/MS/MS.

The target of a further series is T1, JAK1-JH2 (Homo sapiens, UniProt P23458).
T1 construct: Enzymatic activity(IC50) assay of compounds against TYK2-JH2 and JAK1-JH2
T1 sequence (P23458 583-855 limits assumed): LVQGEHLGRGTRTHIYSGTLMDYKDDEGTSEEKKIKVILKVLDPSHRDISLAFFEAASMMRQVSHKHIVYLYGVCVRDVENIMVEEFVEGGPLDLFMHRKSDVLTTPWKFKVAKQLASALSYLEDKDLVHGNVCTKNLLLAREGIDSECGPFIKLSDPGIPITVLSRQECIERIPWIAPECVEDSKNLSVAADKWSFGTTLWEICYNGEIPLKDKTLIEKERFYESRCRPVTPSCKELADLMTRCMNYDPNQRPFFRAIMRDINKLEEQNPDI
The series is described as follows: Enzymatic activity (IC50) assay against JAK1-JH2 (fluorescence polarisation, JH2 probe 1). The class given is binding. The procedure: (§1) Using an Echo liquid handler, 50 nL of the compound to be tested was transferred into a 384-well reaction plate, in duplicate wells for each compound. The plate was subjected to centrifugation at 1000 rpm for 1 min and the final DMSO concentration was 0.5%. Subsequently, 5 µL of TYK2 (or JAK1) was added to the plate, centrifuged at 1000 rpm for 1 min, and incubated at 25 °C for 10 min. Then, 5 µL of JH2 probe 1 was added to the plate, centrifuged at 1000 rpm for 1 min, and incubation at 25 °C for 60 min. FP 520/48 signals were measured using a BMG high-throughput multifunctional plate reader. Data from the TYK2-JH2 assay were analyzed using GraphPad Prism 8 software. […] After calculating inhibition rates, IC50 values (half-maximal inhibitory concentrations) of the control compounds and the compounds to be tested were determined using nonlinear regression fitting of software. [formula] • Datapositive control: mean value of positive control wells • Datanegative control: mean value of negative control wells

The next series has as its target T2, TYK2-JH2 (Homo sapiens, UniProt P29597).
T2 construct: Enzymatic activity(IC50) assay of compounds against TYK2-JH2 and JAK1-JH2
The series can be described thus: Enzymatic activity (IC50) assay against TYK2-JH2 (fluorescence polarisation, JH2 probe 1). The format is binding. Here is the method:
as §1

The nature of series [2]: Pharmacokinetic experiment in rats. Conditions: for Vd: plasma, iv, 2 mg/kg. The class given is in vivo, Male SD rats. Here is the method: Male SD rats were divided into groups of three animals each, which were administered the compound of Example 2 by intravenous injection (2 mg/kg), administered the compound of Example 2 by single oral gavage (10 mg/kg), and administered a control compound by single oral gavage (10 mg/kg), respectively. Animals were fasted overnight prior to dosing, beginning 10 hours before administration and continuing until 4 hours after dosing. For the intravenous group, blood samples were collected at 0.0833, 0.25, 0.5, 1, 2, 4, 6, 8, and 24 h post-dose. For the oral administration groups, blood samples were collected at 0.25, 0.5, 1, 2, 4, 6, 8, and 24 h post-dose. Blood samples (0.3 mL) were collected from the retro-orbital venous plexus under isoflurane anesthesia into heparinized tubes. The samples were centrifuged at 4000 rpm for 5 min at 4 °C, and plasma was transferred to centrifuge tubes and stored at -80°C until analysis. Plasma samples were processed by protein precipitation extraction, and the extracts were analyzed by LC/MS/MS. Pharmacokinetic results are shown in Tables 2 and 3: Table 2: Pharmacokinetic parameters of the compound in Example 2 in rat plasma after intravenous administration

[3] abbreviates: read-out: brain/blood concentration ratio.
[4] abbreviates: male, SD, rat plasma, intravenous injection 2 mg/kg.
Setting [5] is: male, SD, rat plasma, single oral gavage 10 mg/kg.

T2 sequence (P29597 589-875 limits assumed): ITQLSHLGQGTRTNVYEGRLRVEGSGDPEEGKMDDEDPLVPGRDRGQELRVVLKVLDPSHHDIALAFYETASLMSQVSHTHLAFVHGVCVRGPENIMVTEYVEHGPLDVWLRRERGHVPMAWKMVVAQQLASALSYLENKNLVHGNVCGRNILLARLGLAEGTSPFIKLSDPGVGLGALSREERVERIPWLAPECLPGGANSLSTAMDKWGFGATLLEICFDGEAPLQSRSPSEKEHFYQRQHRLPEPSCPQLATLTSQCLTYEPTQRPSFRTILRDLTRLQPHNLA

On to `[2H]C([2H])([2H])NC(=O)c1nnc(NC(=O)C2CC2)cc1Nc1cccc(-c2ncn(C)n2)c1OC` [Deucravacitinib, reference compound], for which the “brain penetration (in words)” value in series [1] is listed as “very low brain penetration”. The Kp at 0.5 h in series [1] (PO 10 mg/kg, 0.5 hours after administration, read-out: brain/blood concentration ratio) amounted to 0.032.

With `CNc1cc2nn3c(cnc13)C(=O)O[C@H](C)COCc1ccc(OC)c(c1)N2` [Example 1, (7R,E)-3^6-methoxy-7-methyl-1^8-(methylamino)-5,8-dioxa-2-aza-1(6,3)-imidazo[1,2-b]pyridazin-3(1,3)-benzocyclononan-9-one], the IC50 is above 5000 nM at JAK1-JH2 and below 5 nM against TYK2-JH2. The Kp at 5 min in series [1] (setting [3]) worked out at 3.15.

In turn, `CNc1cc2nc3c(cnn13)C(=O)OC(C)COCc1ccc(OC)c(c1)N2` [Example 2, (R,1^3E,1^4E)-3^6-methoxy-7-methyl-1^7-(methylamino)-5,8-dioxa-2-aza-1(5,3)-pyrazolo[1,5-a]pyrimidin-3(1,3)-benzheterocyclononan-9-one] came in with an IC50 against JAK1-JH2 above 5000 nM. In addition, in series [1], the “brain penetration (in words)” value is reported as “remarkably high brain penetration”. For the same molecule, in series [1] (PO 10 mg/kg, 0.5 hours after administration), the brain/blood concentration ratio worked out at 508%. For the same molecule, the concentration at 0.5 h in series [1] (brain, read-out: concentration in brain tissue) amounted to 2620 ng/mL. Also, in series [1] (10 mg/kg, 0.5 hours post oral dosing, printed as plain ratio, read-out: brain-blood concentration ratio), the Kp at 0.5 h stood at 5.08. For the same molecule, the concentration at 0.5 h in series [1] (plasma, read-out: concentration in plamsa) was 515 ng/mL. Moreover, in series [2] (male, SD, rat, rat plasma, intravenous injection 2 mg/kg, read-out: Vss), the Vd came to 1.28 L/kg. For the same molecule, in series [2] (male, SD, rat, rat plasma, intravenous injection 2 mg/kg, read-out: Vz), the Vd came out at 1.33 L/kg. In series [2] (setting [4]), this molecule gave an AUC(0-inf) of 2030 ng·h/mL, an AUC(0-t) of 2020 ng·h/mL, a C0 of 2260 ng/mL and a mean residence time (MRT) of 1.28 h. Besides, in series [2] (setting [4]), the clearance was 16.7 mL/min/kg and the half-life was 0.93 h. In addition, in series [2] (setting [5]), the AUC(0-inf) stood at 5780 ng·h/mL, the AUC(0-t) came out at 5770 ng·h/mL, the Cmax was 2460 ng/mL and the MRT was 1.97 h. For the same molecule, in series [2] (setting [5]), the time of peak concentration (Tmax) amounted to 0.5 h and the half-life is 2.46 h. Also, the Bioavialibility in series [2] (rat, oral 10 mg/kg vs intravenous 2 mg/kg) worked out at 57.1%. Besides, in series [2] (rat, single oral gavage 10 mg/kg), the “oral drug exposure (in words)” value was “much better than that of the control compounds A and B”. On TYK2-JH2, the IC50 was below 5 nM.

For the molecule `CNc1cc2nn3c(cnc13)C(=O)OC[C@H](C)OCc1ccc(OC)c(c1)N2` [Example 3, (6S, E)-3^6-methoxy-6-methyl-1^8-(methylamino)-5,8-dioxa-2-azazo-1(6,3)-imidazo[1,2-b]pyridazine-3(1,3)-benzheterocyclononan-9-one], the results for the half-maximal inhibitory concentration (IC50) on JAK1-JH2 and at TYK2-JH2 were above 5000 nM and below 20 nM, respectively.

In the case of `CNc1cc2nc3c(cnn13)C(=O)OCC(C)OCc1ccc(OC)c(c1)N2` [Example 4, (S, 1^3E,1^4E)-3^6-methoxy-6-methyl-1^7-(methylamino)-5,8-dioxa-2-azazo-1(5,3)-pyrazolo[1,5-a]pyrimidine-3(1,3)-benzheterocyclononan-9-one], the concentration for half-maximal inhibition (IC50) was above 5000 nM against JAK1-JH2 and below 20 nM against TYK2-JH2.

With `CNc1cc2nn3c(cnc13)C(=O)O[C@@H]1CCC[C@@H]1OCc1cc(c3nnn(C)c3c1)N2` [Example 5, (6^1R,6^2R,E)-3^1-methyl-1^8-(methylamino)-3^1H-5,7-dioxa-2-azazo-1(6,3)-imidazo[1,2-b]pyridazine-3(4,6)-benzo[d][1,2,3]triazole-6(1,2)-cyclopentane cyclooctafuran-8-one], the results for the IC50 against JAK1-JH2 and at TYK2-JH2 were above 5000 nM and below 5 nM, respectively. Besides, the Kp at 5 min in series [1] (setting [3]) was found to be 1.21.

`CNc1cc2nc3c(cnn13)C(=O)O[C@@H]1CCC[C@H]1OCc1cc(c3nnn(C)c3c1)N2` [Example 6, (1^3E,1^4E,6^1R,6^2R)-3^1-methyl-1^7-(methylamino)-3^1H-5,7-dioxa-2-azazo-1(5,3)-pyrazolo[1,5-a]pyrimidine-3(4,6)-benzo[d][1,2,3]triazole-6(1,2)-cyclopentane cyclooctafuran-8-one]: the Kp at 5 min in series [1] (setting [3]) worked out at 0.322. The same molecule displayed an IC50 on TYK2-JH2 below 10 nM.

Regarding `CNc1cc2nn3c(cnc13)C(=O)O[C@H](C)COCc1cc(c(=O)n(C)c1)N2` [Example 7, (1^5E,3^3E,7R)-3^1,7-dimethyl-1^8-(methylamino)-3^1,3^2-dihydro-5,8-dioxa-2-azazo-1(6,3)-imidazo[1,2-b]pyridazine-3(3,5)-pyridine heterocyclononane-3^2,9-dione], the results for the IC50 on JAK1-JH2 and at TYK2-JH2 were above 5000 nM and below 5 nM, respectively.

On to `CNc1cc2nc3c(cnn13)C(=O)O[C@H](C)COCc1cc(c(=O)n(C)c1)N2` [Example 8, (R,1^3E,1^4E,3^3E)-3^1,7-dimethyl-1^7-(methylamino)-3^1,3^2-dihydro-5,8-dioxa-2-azazo-1(5, 3)-pyrazolo[1,5-a]pyrimidine-3 (3,5)-pyridine heterocyclononane-3^2,9-dione], for which the IC50 was above 5000 nM on JAK1-JH2 and below 5 nM on TYK2-JH2.

In the case of `CNc1cc2nn3c(cnc13)C(=O)N[C@@H]1CCC[C@H]1OCc1cc(c3nnn(C)c3c1)N2` [control compound A, reference compound], at JAK1-JH2, the IC50 was above 1000 nM. The “brain penetration (in words)” value in series [1] is “very low brain penetration”. In addition, in series [1] (setting [3]), the Kp at 5 min was found to be 0.0879. In addition, in series [2] (setting [5]), the AUC(0-inf) was determined as 735 ng·h/mL, the area under the curve AUC(0-t) is 592 ng·h/mL, the highest level (Cmax) was 126 ng/mL and the MRT is 3.16 h. In addition, in series [2] (setting [5]), the Tmax was found to be 1.83 h and the half-life is 3.07 h. The IC50 against TYK2-JH2 was below 5 nM.

On to `CNc1cc2nc3c(cnn13)C(=O)N[C@H](C)COCc1ccc(OC)c(c1)N2` [control compound B, reference compound], for which the Kp at 5 min in series [1] (setting [3]) was 0.228. For the same molecule, in series [2] (setting [5]), the area under the curve AUC(0-inf) came to 332 ng·h/mL, the AUC(0-t) amounted to 327 ng·h/mL, the Cmax was 192 ng/mL and the mean residence time MRT came to 1.63 h. In series [2] (setting [5]), the time to peak (Tmax) was found to be 0.5 h and the half-life was 1.08 h.

These data come from patent publication EP4692096A1, “MACROCYCLIC COMPOUND, AND PHARMACEUTICAL COMPOSITION AND USE THEREOF” (Prime Gene Therapeutics Co., Ltd., priority 2023, dated 2024).
